The source of these data is patent US5100907A, “Hydantoin esters” (Lonza, Inc., priority 1990, dated 1992).

One data set deals with Aspergillus niger. As to the kind of experiment: Antimicrobial study against Aspergillus niger (mold). Type of data set: cell-based. The note with it: methylolated C8/10 10,800 ppm, methylolated lauric 11,400 ppm, DMDMH 3,000 ppm, others 14,700 ppm. The protocol:
(§1) The antimicrobial properties of typical esters (I) and (Ia) were tested by minimum inhibitory concentration (MIC) tests, along with certain known substances, against […] strains of organisms: a mold, Aspergillus niger; a gram-positive bacteria, Staphylococcus aureus; and two gram-negative bacteria, Escherichia coli and Pseudomonas aeruginosa. […] These tests were used to determine any effect on biocidal activity of the varying chain length of the ester.
(§2) The known substances, on which identical tests were also performed, included the biocide, dimethyloldimethylhydantoin or DMDMH (iv), and a series of three surfactants, i.e., the three common emulsifiers, sodium lauryl sulfate (SLS); ethylene glycol distearate (EGDS), in the form of the commercial product PEGOSPERSE 50 DS (Lonza Inc.); and polyoxyethylene 20 sorbitan monoleate (POE 20 SMO), in the form of the commercial product GLYCOSPERSE 0 20 (Lonza Inc.).
(§3) The tests entailed contaminating a preexisting micro-colony with a known quantity (ppm, concentration) of test material. Each colony was then examined periodically over a one week period. […] A test was deemed non-efficacious when there was no decrease in colony size. In an effort to avoid any possible solvent effect, the micro-study was conducted in a totally aqueous solvent system without use of any other solvent.

In another data set the test system is Staphylococcus aureus. Kind of data set: Antimicrobial study against Staphylococcus aureus (gram-positive bacteria). The format is cell-based. The note with it: methylolated C8/10 10,800 ppm, methylolated lauric 11,400 ppm, DMDMH 3,000 ppm, others 14,700 ppm. Here is the method:
as §1, §2, §3

For another data set, the system named is Escherichia coli. As to the kind of experiment: Antimicrobial study against Escherichia coli (gram-negative bacteria). Type of data set: cell-based. As to conditions: methylolated C8/10 10,800 ppm, methylolated lauric 11,400 ppm, DMDMH 3,000 ppm, others 14,700 ppm. The protocol:
as §1, §2, §3

The test system of another data set is Pseudomonas aeruginosa. As to the kind of experiment: Antimicrobial study against Pseudomonas aeruginosa (gram-negative bacteria). Type of data set: cell-based. As to conditions: methylolated C8/10 10,800 ppm, methylolated lauric 11,400 ppm, DMDMH 3,000 ppm, others 14,700 ppm. Here is the method: as §1, §2, §3
The conditions of data set [1]: as formaldehyde donor; cited from earlier work.
For data set [2], the system named is mold, and gram-positive and gram-negative bacteria. Kind of data set: Antimicrobial tests, overall biocidal effectiveness. The format is cell-based. The note with it: under the test conditions. The protocol: as §1, §2, §3
Data set [3] can be described thus: Surface tension tests (cmc, Gibbs' Free Energy of Micellation). The format is physicochemical. The protocol: Surface tension tests were conducted as to the relationship between the fatty acid aliphatic chain length, i.e. number of carbon atoms, in the esters (I), and their performance as surfactants. The length of the hydrophobic chain of a molecule is considered the major contributing factor to the critical micelle concentration (cmc) value of a surfactant. This value is obtained from surface tension measurement data. The lower the cmc, the more readily the material will form micelles.
The Gibbs' Free Energy of Micellation (ΔG°cmc) and the ΔG°cmc per --CH2 -- can be determined if the cmc is known.
The ΔG°cmc is a calculated value obtained by Equation 1.
ΔG°cmc =2.303RT(log cmc-log[water]) (Eq. 1)
The ΔG°cmc per --CH2 -- value is obtained from the slope of the straight line curve formed from a plot of ΔG°cmc versus the number of carbon atoms in the lipophilic chain.
The cmc values were based on surface tension tests conducted with a tensiometer (Cenco-DuNoug Precision Model #70535, direct reading model) to determine the upward surface tension at the liquid-air surface of the test ester/water solution. The methods used to calibrate the tensiometer, calculate the "correction factor" (used to correct for the difference between the apparent and true surface tension), and collect data, were conducted as described in the manual for the instrument. Sodium lauryl sulfate (SLS) and distilled water were used as reference samples.
On completing data collection, plots of the surface tension (dynes) versus -log of the concentration (mols/liter) were prepared, using only the "corrected" surface tension value, obtained by applying the noted "correction factor" in each case. The […] was found by multiplying the "apparent" surface tension by a calculated correction factor.
The critical micelle concentration (cmc) for each sample was determined by locating the point in the curve where the surface tension first begins to level off, per a known procedure.

As for `CC1(C)C(=O)N(CO)C(=O)N1CO` [DMDMH (iv), 1,3-dihydroxymethyl-5,5-dimethyl-1,3-diazacyclopentane-2,4-dione, reference compound], the “Colony Count” value in the data set on Aspergillus niger (Day 0) is 400 × 1,000; with Aspergillus niger (Day 1) it was < 0.03 × 1,000; in the data set on Aspergillus niger (Day 2), < 0.01 × 1,000; in the data set with Aspergillus niger (Day 3) it was < 0.01 × 1,000; in the data set with Aspergillus niger (Day 7) it was < 0.01 × 1,000; in the data set with Staphylococcus aureus (Day 0) it was “TNC”. For the same compound, the “Colony Count” value in the data set with Staphylococcus aureus (Day 1) was “TNC”; with Staphylococcus aureus (Day 2) it was “TNC”; in the data set on Staphylococcus aureus (Day 3), < 0.01 × 1,000; in the data set with Staphylococcus aureus (Day 7) it was < 0.01 × 1,000; in the data set on Escherichia coli (Day 0), “TNC”; in the data set on Escherichia coli (Day 1), “TNC”. Further, the “Colony Count” value in the data set with Escherichia coli (Day 2) is “TNC”; in the data set with Escherichia coli (Day 3), < 0.01 × 1,000; with Escherichia coli (Day 7) it was < 0.01 × 1,000; in the data set with Pseudomonas aeruginosa (Day 0) it was “TNC”; with Pseudomonas aeruginosa (Day 1), “TNC”; in the data set with Pseudomonas aeruginosa (Day 2) it was < 0.01 × 1,000. Further, the “Colony Count” value with Pseudomonas aeruginosa (Day 3) and in the data set with Pseudomonas aeruginosa (Day 7) was < 0.01 × 1,000 throughout. In data set [1], the “minimum inhibitory concentration (MIC)” value is given as 0.1%.
Take `CCCCCCCCCCCCCCCCCC(=O)OCCOC(=O)CCCCCCCCCCCCCCCCC` [EGDS, ethylene glycol distearate, reference compound]: the “Colony Count” value with Aspergillus niger (Day 0) is 2,000 × 1,000; in the data set with Aspergillus niger (Day 1), 500 × 1,000; in the data set with Aspergillus niger (Day 2), 300 × 1,000; in the data set on Aspergillus niger (Day 3) it was 200 × 1,000; with Aspergillus niger (Day 7), 700 × 1,000; in the data set with Staphylococcus aureus (Day 0), 600 × 1,000. In addition, the “Colony Count” value is listed as 350 × 1,000 in the data set on Staphylococcus aureus (Day 1); “TNC” with Staphylococcus aureus (Day 2); “TNC” with Staphylococcus aureus (Day 3); 2,000 × 1,000 in the data set with Staphylococcus aureus (Day 7); 2,000 × 1,000 in the data set with Escherichia coli (Day 0); “TNC” in the data set on Escherichia coli (Day 1). Also, the “Colony Count” value with Escherichia coli (Day 2) was “TNC”; with Escherichia coli (Day 3) it was “TNC”; in the data set with Escherichia coli (Day 7), “TNC”; in the data set on Pseudomonas aeruginosa (Day 0) it was 3,000 × 1,000; in the data set on Pseudomonas aeruginosa (Day 1), “TNC”; in the data set with Pseudomonas aeruginosa (Day 2) it was “TNC”. Besides, the figures for the “Colony Count” value in the data set on Pseudomonas aeruginosa (Day 3) and in the data set on Pseudomonas aeruginosa (Day 7) were 2,500 × 1,000 and “TNC”, respectively. Further, in data set [2], the biocidal effectiveness result is “none of the three known long aliphatic chain containing emulsifiers, sodium lauryl sulfate, ethylene glycol distearate and POE 20 sorbitan monoleate, was effective as a biocide”.
As for `CC1(C)C(=O)NC(=O)N1CO` [MDMH (iii), 1-hydroxymethyl-5,5-dimethyl-1,3-diazacyclopentane-2,4-dione], in data set [1], the “minimum inhibitory concentration (MIC)” value is reported as 0.2%.
For the compound `CCCCCCCCCCCCOS(=O)(=O)[O-].[Na+]` [SLS, Sodium lauryl sulfate, reference compound], the “ΔG°cmc” value in data set [3] (Table 6) was -5.552 kcal/mol. The “ΔG°cmc (Gibbs' Free Energy of Micellation)” value in data set [3] (calculated from cmc by Eq. 1, T=298° K.) is -5.552 kcal/mol. For the same compound, in data set [3] (ester/water solution), the “cmc (critical micelle concentration)” value was 4.4 × 10^-3 mol dm^-3. Moreover, the “Colony Count” value in the data set with Aspergillus niger (Day 0) is 600 × 1,000; with Aspergillus niger (Day 1), 2,000 × 1,000; in the data set on Aspergillus niger (Day 2), 300 × 1,000; with Aspergillus niger (Day 3) it was 160 × 1,000; in the data set with Aspergillus niger (Day 7) it was 200 × 1,000; with Staphylococcus aureus (Day 0), 2,000 × 1,000. Besides, the “Colony Count” value in the data set on Staphylococcus aureus (Day 1) is reported as 3,000 × 1,000; with Staphylococcus aureus (Day 2), “TNC”; in the data set with Staphylococcus aureus (Day 3), 450 × 1,000; in the data set with Staphylococcus aureus (Day 7) it was < 0.01 × 1,000; in the data set with Escherichia coli (Day 0), 8,000 × 1,000; in the data set on Escherichia coli (Day 1) it was 20 × 1,000. Also, the “Colony Count” value with Escherichia coli (Day 2) was “TNC”; with Escherichia coli (Day 3), 160 × 1,000; in the data set on Escherichia coli (Day 7), 60 × 1,000; with Pseudomonas aeruginosa (Day 0) it was 4,100 × 1,000; in the data set on Pseudomonas aeruginosa (Day 1), 500 × 1,000; with Pseudomonas aeruginosa (Day 2), “TNC”. Moreover, the figures for the “Colony Count” value with Pseudomonas aeruginosa (Day 3) and in the data set with Pseudomonas aeruginosa (Day 7) were 30 × 1,000 and 50 × 1,000, respectively. Moreover, in data set [2], the biocidal effectiveness result is “none of the three known long aliphatic chain containing emulsifiers, sodium lauryl sulfate, ethylene glycol distearate and POE 20 sorbitan monoleate, was effective as a biocide”.
